Consider three compounds from BindingDB's records for patent US20230348467 (Zhejiang Hisun Pharmaceutical, 2023).

For the test, the target named is T1, Tyrosine-protein phosphatase non-receptor type 11 (Homo sapiens, UniProt Q06124).
T1 sequence (Q06124 whole entry): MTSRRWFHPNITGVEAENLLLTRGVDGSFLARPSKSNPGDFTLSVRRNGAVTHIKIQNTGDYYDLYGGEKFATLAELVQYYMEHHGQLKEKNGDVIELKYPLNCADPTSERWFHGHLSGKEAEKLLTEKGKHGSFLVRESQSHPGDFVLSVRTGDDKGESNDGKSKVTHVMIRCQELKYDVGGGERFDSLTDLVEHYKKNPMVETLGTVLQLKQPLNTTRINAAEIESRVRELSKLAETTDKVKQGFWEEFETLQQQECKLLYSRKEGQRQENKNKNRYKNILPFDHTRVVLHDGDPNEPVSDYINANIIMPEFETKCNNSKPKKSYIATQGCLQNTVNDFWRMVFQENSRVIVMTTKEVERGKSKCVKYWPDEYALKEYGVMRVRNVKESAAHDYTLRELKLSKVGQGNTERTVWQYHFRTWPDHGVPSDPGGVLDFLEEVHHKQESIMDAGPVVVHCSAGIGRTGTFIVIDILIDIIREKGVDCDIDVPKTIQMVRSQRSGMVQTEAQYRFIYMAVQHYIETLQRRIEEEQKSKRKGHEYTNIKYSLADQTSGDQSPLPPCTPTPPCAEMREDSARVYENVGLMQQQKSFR
The experiment in a line: Determination of Allosteric Inhibition Activities of the Compounds of the Present Invention on SHP2. How it is done:
he experimental process was briefly described as follows: Test compounds were first dissolved in DMSO to prepare storage solutions. […] Then, the compounds to be tested were added in a concentration range of 0.00004-10 uM and incubated at 25 C. for 60 minutes. Then DiFMUP (Thermo, D6567) was added in the reaction and incubated at 25 C. for 30 minutes. After incubation, readings were taken using a microplate reader (BMG) with excitation and emission wavelengths of 340 nm and 450 nm, respectively.
In turn, `NC1(c2ccccc2)CCN(c2nc(C(=O)O)c3c(-c4cccc(Cl)c4Cl)n[nH]c3n2)CC1` [US20230348467, Compound 10] displayed an IC50 of 7 nM.

Regarding `NC(=O)c1nc(N2C3CCC2CC(N)C3)nc2[nH]nc(-c3cccc(Cl)c3Cl)c12` (stereo not drawn) [US20230348467, Compound 17], it took 4 nM to reach half-maximal inhibition (IC50).

`NC(=O)c1nc(N2CCC(N)(c3cccc(O)c3)CC2)nc2[nH]nc(-c3cccc(Cl)c3Cl)c12` [US20230348467, Compound 51]: inhibition was half-maximal at 3 nM (IC50).
